This is an account of results in US20250326777A1, “COMPOUNDS, COMPOSITIONS AND METHODS THEREOF” (HEPAITECH (BEIJING) BIOPHARMA TECHNOLOGY CO., LTD., priority 2022, published 2025).

This test deals with T1, human MRGPRX4 (Homo sapiens, UniProt Q96LA9).
T1 construct: expressed in transfected cells
T1 sequence (Q96LA9 whole entry): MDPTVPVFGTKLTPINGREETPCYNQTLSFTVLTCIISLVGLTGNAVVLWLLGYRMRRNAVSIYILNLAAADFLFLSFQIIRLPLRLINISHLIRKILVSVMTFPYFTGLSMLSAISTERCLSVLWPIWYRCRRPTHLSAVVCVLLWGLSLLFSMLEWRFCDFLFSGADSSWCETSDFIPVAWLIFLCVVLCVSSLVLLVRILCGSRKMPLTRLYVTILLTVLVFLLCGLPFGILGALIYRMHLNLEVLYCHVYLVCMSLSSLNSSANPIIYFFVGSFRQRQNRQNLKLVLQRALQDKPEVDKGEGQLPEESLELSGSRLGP
In words: MRGPRX4 antagonist calcium (FLIPR, Fluo-8) assay in HEK293T cells stably expressing human MRGPRX4, agonist 0.2 μM deoxycholic acid-3-phosphoric acid. Type of test: cell-based. As to conditions: HEK293T cells stably expressing human MRGPRX4; antagonist mode; top conc. 30 μM, ten 3-fold serial dilutions; C may also mean <40% inhibition at 2 μM; read-out: Antagonist activity (IC50 class). How it is done:
HEK293T cells stably expressing human MRGPRX4 were cultured in DMEM medium supplements with 10% FBS, 100 U/mL penicillin-streptomycin, 20 mM HEPES and 1 μg/mL puromycin at 37° C. with 5% (v/v) CO2. One day before test, the cells were detached using TrypLE™ Express and counted using cell counter. In a 384-well plate cells were seeded at a density of 20,000 cells/well in 20 uL/well planting medium (DMEM medium supplements with 5% FBS, 100 U/mL penicillin-streptomycin and 20 mM HEPES), and incubated overnight at 37° C. with 5% (v/v) CO2. On the day of experiments, the dye solution, prepared following the manufacture's instruction of the Screen Quest™ Fluo-8 No Wash Calcium Assay Kit, was added to each well (20 μL/well) of the cell plate. The cell plate was incubated at 25° C. for 1 hour. Test compounds in different doses were transferred to the cell plate by FLIPR and the plate was kept in the dark at 25° C. for 30 minutes. The agonist solution, 0.2 μM of deoxycholic acid-3-phosphoric acid in assay buffer, was added to each well of the plate. The plate was read for 160 sec with 1 sec interval to obtain data of antagonist mode in FLIPR. For various compounds, IC50 values were calculated by fitting % inhibition against log of compound concentrations (top conc. 30 μM, ten 3-fold serial dilutions) with Hill equation using XLfit. […] Those skilled in the art appreciate that IC50 of various compounds can be assessed in accordance with the present disclosure.
With `O=C(O)c1ccc(F)c(C2Cc3cc(C(F)(F)F)ccc3O2)c1` (stereo not shown) [Example 54], the IC50 – broadly, the concentration at which inhibition is half-maximal – was over 10 µM.

In the case of `O=C(O)c1ccc(C2Cc3cc(C(F)(F)F)ccc3O2)cc1F` (stereo not shown) [Example 55], the half-maximal inhibitory concentration (IC50) is over 10 µM.

In the case of `COc1c(C(=O)O)cccc1C1Cc2cc(C(F)(F)F)ccc2O1` (stereo not shown) [Example 56], the concentration for half-maximal inhibition (IC50) was over 10 µM.

Turning to `O=C(O)c1cc(F)cc(C2Cc3cc(C(F)(F)F)ccc3O2)c1` (stereo not shown) [Example 57], the IC50 was in the range of 1 to 10 µM.

Consider `COc1cc(C(=O)O)cc(C2Cc3cc(C(F)(F)F)ccc3O2)c1` (stereo not shown) [Example 58], for which the 50% inhibitory concentration (IC50) was over 10 µM.

`O=C(O)c1ccc(C2Cc3ccccc3O2)cc1` (stereo not shown) [Example 59]: the IC50 was over 10 µM.

For the compound `O=C(O)c1cccc(C2Cc3cc(C(F)(F)F)ccc3O2)c1` (stereo not shown) [Example 60], the concentration for half-maximal inhibition (IC50) fell in the range of 1 to 10 µM.

For the compound `O=C(O)c1ccc(C2Cc3cc(C(F)(F)F)ccc3O2)cc1` (stereo not shown) [Example 61], the half-maximal inhibitory concentration (IC50) was over 10 µM.

For the compound `O=C(O)c1cc(Cl)cc(C2Cc3cc(C(F)(F)F)ccc3O2)c1` (stereo not shown) [Example 62], the half-inhibitory concentration (IC50) lay within 1 to 10 µM.

As for `O=C(O)c1cccc(C2Cc3cc(Cl)ccc3O2)c1F` (stereo not shown) [Example 63], the half-maximal inhibitory concentration (IC50) fell in the range of 1 to 10 µM.

Regarding `O=C(O)c1cc(-c2ccccc2)cc(C2Cc3cc(C(F)(F)F)ccc3O2)c1` (stereo not shown) [Example 64], the half-inhibitory concentration (IC50) was over 10 µM.

On to `O=C(O)c1cc(C2CCCC2)cc(C2Cc3cc(C(F)(F)F)ccc3O2)c1` (stereo not shown) [Example 65], for which the IC50 was over 10 µM.

Regarding `O=C(O)c1cc(C2CC2)cc(C2Cc3cc(C(F)(F)F)ccc3O2)c1` (stereo not shown) [Example 66], the half-inhibitory concentration (IC50) lay in the range of 1 to 10 µM.

Regarding `Cc1cc(C(=O)O)cc(C2Cc3cc(C(F)(F)F)ccc3O2)c1` (stereo not shown) [Example 67], the IC50 lay within 1 to 10 µM.

On to `Cc1c(C(=O)O)cccc1C1Cc2cc(C(F)(F)F)ccc2O1` (stereo not shown) [Example 68], for which the IC50 is over 10 µM.

As for `Cn1cc(-c2cc(C(=O)O)cc(C3Cc4cc(C(F)(F)F)ccc4O3)c2)cn1` (stereo not shown) [Example 69], the IC50 is over 10 µM.

In the case of `CCOP(=O)(OCC)c1ccc(-c2cc3ccc(C(F)(F)F)cc3n2C)cc1` [Example 70, diethyl(4-(1-methyl-6-(trifluoromethyl)-1H-indol-2-yl)phenyl)phosphonate], the IC50 was over 10 µM.

For `Cn1c(-c2ccc(P(=O)(O)O)cc2)cc2ccc(C(F)(F)F)cc21` [Example 71], the 50% inhibitory concentration (IC50) was over 10 µM.

For the compound `CCOP(=O)(O)c1ccc(-c2cc3ccc(C(F)(F)F)cc3n2C)cc1` [Example 72], the IC50 was over 10 µM.

Take `NC(=O)c1cccc(C2Cc3cc(C(F)(F)F)ccc3O2)c1F` (stereo not shown) [Example 73]: the half-maximal inhibitory concentration (IC50) is over 10 µM.

For the compound `CNC(=O)c1cccc(C2Cc3cc(C(F)(F)F)ccc3O2)c1F` (stereo not shown) [Example 74], the IC50 is over 10 µM.

In the case of `CN(C)C(=O)c1cccc(C2Cc3cc(C(F)(F)F)ccc3O2)c1F` (stereo not shown) [Example 75], the IC50 is over 10 µM.

Take `O=C(O)c1cccc(C2CCc3cc(C(F)(F)F)ccc3O2)c1F` (stereo not shown) [Example 76]: the half-inhibitory concentration (IC50) is over 10 µM.

With `O=C(O)c1cccc(C2Cc3c(cccc3C(F)(F)F)O2)c1F` (stereo not shown) [Example 77], the IC50 was over 10 µM.

With `O=C(O)c1cccc(C2Cc3cc(OC(F)(F)F)ccc3O2)c1F` (stereo not shown) [Example 78], the 50% inhibitory concentration (IC50) is 1 to 10 µM.

Take `O=C(O)c1cccc(C2Cc3cc(F)ccc3O2)c1F` (stereo not shown) [Example 79]: the IC50 is over 10 µM.

Turning to `N#Cc1ccc2c(c1)CC(c1cccc(C(=O)O)c1F)O2` (stereo not shown) [Example 80], the half-maximal inhibitory concentration (IC50) is over 10 µM.

Regarding `O=C(O)c1cccc(C2Cc3cc(F)c(F)cc3O2)c1F` (stereo not shown) [Example 81], the IC50 was over 10 µM.

For `O=C(O)c1cccc(C2Cc3cc(F)cc(F)c3O2)c1F` (stereo not shown) [Example 82], the IC50 is over 10 µM.

In the case of `O=C(O)c1cccc(C2Cc3cccc(C(F)(F)F)c3O2)c1F` (stereo not shown) [Example 83], the IC50 was over 10 µM.

Regarding `O=C(O)c1cccc(C2Cc3cc(F)cc(Cl)c3O2)c1F` (stereo not shown) [Example 84], the half-maximal inhibitory concentration (IC50) is over 10 µM.

As to `O=C(O)c1c(F)ccc(C2Cc3cc(C(F)(F)F)ccc3O2)c1F` (stereo not shown) [Example 85], the IC50 was over 10 µM.

With `CC1(c2cccc(C(=O)O)c2F)Cc2cc(C(F)(F)F)ccc2O1` (stereo not shown) [Example 86], the IC50 lay in the range of 1 to 10 µM.

On to `O=C(O)c1cccc(C2Cc3cc(C(F)(F)F)ccc3O2)c1F` (stereo not shown) [Example 87], for which the 50% inhibitory concentration (IC50) was over 10 µM.
